Measurements: patent US20180251495A1, “Skin-Penetrating Peptides and Compositions and Methods of Use Thereof” (The Regents of the University of California, priority 2015, published 2018)
Read-outs that look alike come from different tables or passages of the source. Where a SMILES comes first, the peptide text is derived from it. Bridges are numbered along the chain shown (N, C = ends). Where no end group is shown, it is not given here.

B1: SP7-5 (…) (peptide)
peptide: ACSASTNHNCG
modifications: disulfide 2-10 (inferred)
B2: SP7-3 (…) (peptide)
peptide: ACLSVNHNACG
modifications: disulfide 2-10 (inferred)
B3: SP7-1 (…) (peptide)
peptide: ACSATLQHSCG
modifications: disulfide 2-10 (inferred)
B4: SPACE™ peptide (…) (peptide)
peptide: ACTGSTQHQCG
modifications: disulfide 2-10 (inferred)
B5: SP7-2 (…) (peptide)
peptide: ACSLTVNWNCG
modifications: disulfide 2-10 (inferred)
B6: SP7-4 (…) (peptide)
peptide: ACTSTGRNACG
modifications: disulfide 2-10 (inferred)

How the values were obtained:
[1] = for solubility in PBS: PBS pH 8.0
[2] = MTT cytotoxicity assessment in keratinocytes; format: cell-based, human; details: human, HEKa cells (adult epidermal keratinocytes); HEKa cells exposed to 5 mg/mL peptide in solution
Method: (§1) HEKa cells were cultured in 1× keratinocyte Serum-Free Medium supplemented with 25 U/mL penicillin, 25 μg/mL streptomycin, and 50 μg/mL neomycin. Cultures were grown at 37° C. with 5% CO2. The cytotoxicity of SPPs was assessed using the MTT Cell Proliferation Assay (ATCC, Manassas, Va.). HEKa cells were seeded in 96-well microplates (Corning Inc., Corning, N.Y.) at a density of 5000 cells/well. Cultures were allowed to grow until they reached ˜80% confluency. Cells were then incubated with 200 μL of 10, 5, or 2.5 mg/mL of selected SPPs in media. The pH was adjusted to afford complete dissolution of peptides. Media only was used as a negative control, and media or SPP formulations without cells was used to subtract background. Cytotoxicity was assessed after overnight incubation. Viability was determined according to the manufacturer's recommended protocol using a SAFIRE, XFLUOR4, V4.50 microplate reader (Tecan Group Ltd, Morrisville, N.Y.).
(§2) To assess the potential for skin toxicity, SPPs were incubated with HEKa cells overnight and % viability was determined. HEKa cells were used since keratinocytes are the primary cell-type in the skin, and therefore, represent a good estimate of the potential for skin irritation.

[3] = test system: HEKa cells (human adult epidermal keratinocytes); experiment: MTT cytotoxicity assessment in keratinocytes; format: cell-based; details: overnight incubation, MTT
Method: as §1, §2

[4] = In vitro skin permeation of radiolabelled SPPs in Franz diffusion cells; format: in vitro ADME, porcine
Method: Test formulations were loaded and incubated as described.
The skin penetrating ability of the selected heptamer (SP7-1 through SP7-5) SPPs was evaluated in comparison with SPACE™. […] Radiolabelled peptides were loaded on Franz diffusion cells (FDCs) and incubated at 37° C. with moderate stirring. After 24 hours, the various skin layers were harvested, dissolved and analyzed using a scintillation counter to determine the amount of peptide.

human keratin (human) [5] = experiment: batch affinity chromatography, peptide on Toyopearl resin, human keratin in solution, Langmuir fit
human keratin (human) [6] = experiment: batch adsorption isotherm (affinity chromatography): peptide coupled to Toyopearl AF-Epoxy-650 resin, human keratin in PBS pH 7.4 in solution, Langmuir fit
[7] = peptide amount after 24 hours, 37° C.

Molecule	toxicity to HEKa cells [3]	Skin permeation, Dermis [4, 7] [μg/cm^2]	Skin permeation, Receptor [4, 7] [μg/cm^2]	Skin permeation, SC + Epidermis [4, 7] [μg/cm^2]	Experimental Qmax (human keratin (human) [5]) [mg/mL resin]	Kd (human keratin (human) [5]) [µM]	Kd (human keratin (human) [6]) [µg/mL]	also measured
C[C@H](N)C(=O)N[C@H]1CSSC[C@@H](C(=O)NCC(=O)O)NC(=O)[C@H](CC(N)=O)NC(=O)[C@H](Cc2c[nH]cn2)NC(=O)[C@H](CC(N)=O)NC(=O)[C@H]([C@@H](C)O)NC(=O)[C@H](CO)NC(=O)[C@H](C)NC(=O)[C@H](CO)NC1=O [SP7-5, ACSASTNHNCG] (H-ACSASTNHNCG-OH; disulfide 2-10; N-terminus and C-terminus assumed)	significantly toxic (p <0.001) at only 1 mg/mL	124.3 ± 28.2	39.5 ± 8.5	759.9 ± 62.1	–	–	–	solubility in PBS [1]: did not give any solubility problems; viability at 5000 µg/mL [2]: 60.1 ± 2.6%
C[C@H](N)C(=O)N[C@H]1CSSC[C@@H](C(=O)NCC(=O)O)NC(=O)[C@H](CCC(N)=O)NC(=O)[C@H](Cc2c[nH]cn2)NC(=O)[C@H](CCC(N)=O)NC(=O)[C@H]([C@@H](C)O)NC(=O)[C@H](CO)NC(=O)CNC(=O)[C@H]([C@@H](C)O)NC1=O [SPACE™, ACTGSTQHQCG, reference compound] (H-ACTGSTQHQCG-OH; disulfide 2-10; N-terminus and C-terminus assumed)	–	–	–	–	–	–	–	viability at 5000 µg/mL [2]: 99.4 ± 3.9%; Skin permeation, Dermis [4]: 200.6 ± 59.3 μg/cm^2; Skin permeation, Receptor [4]: 96.0 ± 31.1 μg/cm^2; Skin permeation, SC + Epidermis [4]: 782.5 ± 84.7 μg/cm^2
CC(C)C[C@@H]1NC(=O)[C@@H](NC(=O)[C@H](C)N)CSSC[C@@H](C(=O)NCC(=O)O)NC(=O)[C@H](C)NC(=O)[C@H](CC(N)=O)NC(=O)[C@H](Cc2c[nH]cn2)NC(=O)[C@H](CC(N)=O)NC(=O)[C@H](C(C)C)NC(=O)[C@H](CO)NC1=O [SP7-3, ACLSVNHNACG] (H-ACLSVNHNACG-OH; disulfide 2-10; N-terminus and C-terminus assumed)	significantly toxic (p <0.001) at only 1 mg/mL	39.5 ± 25.4	16.9 ± 11.3	759.9 ± 73.4	–	–	–	solubility in presence of CsA ([1]; in presence of CsA): could not be fully solubilized
C[C@H](N)C(=O)N[C@H]1CSSC[C@@H](C(=O)NCC(=O)O)NC(=O)[C@H]([C@@H](C)O)NC(=O)[C@H](CO)NC(=O)[C@H](CCCNC(=N)N)NC(=O)[C@H](C)NC(=O)[C@H](CCC(N)=O)NC(=O)[C@H](Cc2c[nH]cn2)NC(=O)[C@H](C)NC(=O)[C@H](CC(N)=O)NC1=O [SP8-1, ACNAHQARSTCG] (H-ACNAHQARSTCG-OH; disulfide 2-11; N-terminus and C-terminus assumed)	no observable toxicity	–	–	–	–	–	–	toxicity to HEKa cells ([3]; listed as octamer): non-toxic at concentrations as high as 10 mg/mL
CC(C)C[C@@H]1NC(=O)[C@H](CO)NC(=O)[C@@H](NC(=O)[C@H](C)N)CSSC[C@@H](C(=O)NCC(=O)O)NC(=O)[C@H](CC(N)=O)NC(=O)[C@H](Cc2c[nH]c3ccccc23)NC(=O)[C@H](CC(N)=O)NC(=O)[C@H](C(C)C)NC(=O)[C@H]([C@@H](C)O)NC1=O [SP7-2, ACSLTVNWNCG] (H-ACSLTVNWNCG-OH; disulfide 2-10; N-terminus and C-terminus assumed)	–	166.7 ± 45.2	65.0 ± 14.1	774.0 ± 110.2	–	–	–	solubility in PBS [1]: did not give any solubility problems; toxicity to HEKa cells ([3]; listed as SP-2): some toxicity for all concentrations tested, however, the results were not statistically significant
C[C@H](N)C(=O)N[C@H]1CSSC[C@@H](C(=O)NCC(=O)O)NC(=O)[C@H](C)NC(=O)[C@H](CC(N)=O)NC(=O)[C@H](CCCNC(=N)N)NC(=O)CNC(=O)[C@H]([C@@H](C)O)NC(=O)[C@H](CO)NC(=O)[C@H]([C@@H](C)O)NC1=O [SP7-4, ACTSTGRNACG] (H-ACTSTGRNACG-OH; disulfide 2-10; N-terminus and C-terminus assumed)	significantly toxic (p <0.001) at only 1 mg/mL	53.7 ± 31.1	19.8 ± 19.8	545.2 ± 79.1	–	–	–	solubility in PBS [1]: did not give any solubility problems
C[C@H](N)C(=O)N[C@H]1CSSC[C@@H](C(=O)NCC(=O)O)NC(=O)[C@H](CC(N)=O)NC(=O)[C@H](CCCNC(=N)N)NC(=O)CNC(=O)[C@H]([C@@H](C)O)NC(=O)[C@H](Cc2c[nH]cn2)NC(=O)[C@H]([C@@H](C)O)NC1=O [SP6-1, ACTHTGRNCG] (H-ACTHTGRNCG-OH; disulfide 2-9; N-terminus and C-terminus assumed)	no observable toxicity	–	–	–	–	–	–	toxicity to HEKa cells ([3]; listed as hexamer): non-toxic at concentrations as high as 10 mg/mL
CC(C)C[C@@H]1NC(=O)[C@H]([C@@H](C)O)NC(=O)[C@H](C)NC(=O)[C@H](CO)NC(=O)[C@@H](NC(=O)[C@H](C)N)CSSC[C@@H](C(=O)NCC(=O)O)NC(=O)[C@H](CO)NC(=O)[C@H](Cc2c[nH]cn2)NC(=O)[C@H](CCC(N)=O)NC1=O [SP7-1, ACSATLQHSCG] (H-ACSATLQHSCG-OH; disulfide 2-10; N-terminus and C-terminus assumed)	only toxic when at 10 mg/mL	149.7 ± 5.6	42.4 ± 8.5	819.2 ± 62.2	–	–	–	pH adjusted to achieve complete solubility ([1]; PBS): 8.5
B1	–	–	–	–	4.01	10.1	456	–
B2	–	–	–	–	4.07	9.4	423	–
B3	–	–	–	–	4.16	8.02	361	–
B4	–	–	–	–	3.98	10.6	477	–
B5	–	–	–	–	4.09	8.73	393	–
B6	–	–	–	–	3.43	15.8	716	–
